What was measured:
[1] = test system: benzodiazepine site on GABAA receptor; test: GABA shift experiment, [3H]-Ro15-1788 competition with/without 10 μM GABA; type: binding, rat
[2] = biological target: BZD-S; test: Radio-receptor binding assay, [3H]flunitrazepam, forebrain crude synaptosomal fraction (Example 3); set-up: species or system Sprague-Dawley rats; conditions: 1 nM [3H]flunitrazepam, rat forebrain; read-out: Inhibition of 3H-Flunitrazepam Ki
[3] = test system: mice; test: Hole-board test; type: in vivo, Male ICR mice; set-up: Time spent head-dipping: unit not given here
[4] = test system: mice; test: Elevated plus-maze test; type: in vivo, Male ICR mice
[5] = test system: mice; test: Horizontal wire test; type: in vivo, Male ICR mice
[6] = biological target: benzodiazepine site (BZD-S) of the GABAA receptor
[7] = test system: benzodiazepine site (BZD-S) of the GABAA receptor; test: Radioligand receptor binding, displacement of [3H]-flunitrazepam (Example 1)
[8] = test system: benzodiazepine site; conditions: 10^-4 M GABA, rat cerebral cortex membranes; cited from earlier work
[9] = test system: benzodiazepine site; conditions: 10^-5 M muscimol, rat cerebellar membranes; cited from earlier work
[10] = biological target: benzodiazepine binding site; test: Inhibition of [3H]-flunitrazepam by 2′ flavonoid derivatives (Example 7)
[11] = 1 mg/kg oral, time cell empty (1 hour), 5-min test
[12] = 5 mg/kg oral, time cell empty (1 hour), 5-min test
[13] = 1 mg/kg oral, time cell empty, 5-min test
[14] = 5 mg/kg oral, time cell empty, 5-min test

COc1c(O)c(OC)c2oc(-c3ccccc3O)cc(=O)c2c1O [Compound 1, 5,7,2′-trihydroxy-6,8-dimethoxyflavone]
GABA ratio ([1]; IC50 without GABA / IC50 with 10 μM GABA, 1 nM [3H]-Ro15-1788): 1.20 | Ki [2]: 1.1 nM | Number of head dips ([3]; 1 mg/kg oral, 20 min): 13.56 ± 1.81 | Number of rearings ([3]; 1 mg/kg oral, 20 min): 24.19 ± 3.53 | Time spent head-dipping ([3]; 1 mg/kg oral, 20 min): 15.38 ± 1.59 | Number of head dips ([3]; 1 mg/kg oral, 60 min): 15.75 ± 2.53 | Number of rearings ([3]; 1 mg/kg oral, 60 min): 23.94 ± 2.34 | Time spent head-dipping ([3]; 1 mg/kg oral, 60 min): 16.75 ± 3.78 | Number of head dips ([3]; 2 mg/kg oral, 20 min): 13.13 ± 1.96 | Number of rearings ([3]; 2 mg/kg oral, 20 min): 22.06 ± 3.17 | Time spent head-dipping ([3]; 2 mg/kg oral, 20 min): 14.56 ± 2.04 | Number of head dips ([3]; 2 mg/kg oral, 60 min): 14.50 ± 2.73 | Number of rearings ([3]; 2 mg/kg oral, 60 min): 22.13 ± 2.46 | Time spent head-dipping ([3]; 2 mg/kg oral, 60 min): 15.13 ± 2.20 | number of head-dips, time spent head-dipping and number of rearings ([3]; 4 mg/kg acute, twenty minutes after dosage): significant increase | Number of head dips ([3]; 4 mg/kg oral, 20 min): 20.25 ± 1.42 | Number of rearings ([3]; 4 mg/kg oral, 20 min): 29.54 ± 2.09 | Time spent head-dipping ([3]; 4 mg/kg oral, 20 min): 23.35 ± 1.28 | Number of head dips ([3]; 4 mg/kg oral, 60 min): 16.95 ± 1.33 | Number of rearings ([3]; 4 mg/kg oral, 60 min): 27.56 ± 2.79 | Time spent head-dipping ([3]; 4 mg/kg oral, 60 min): 17.56 ± 1.20 | Number of head dips ([3]; 8 mg/kg oral, 20 min): 18.46 ± 3.65 | Number of rearings ([3]; 8 mg/kg oral, 20 min): 25.26 ± 2.74 | Time spent head-dipping ([3]; 8 mg/kg oral, 20 min): 19.55 ± 4.23 | Number of head dips ([3]; 8 mg/kg oral, 60 min): 15.72 ± 1.86 | Number of rearings ([3]; 8 mg/kg oral, 60 min): 23.75 ± 3.18 | Time spent head-dipping ([3]; 8 mg/kg oral, 60 min): 15.06 ± 1.98 | sedative effects (decrease in head-dips, time head-dipping, rearings) ([3]; mouse, in vivo): lack of sedative effects | % of entries into open arms ([4]; 1 mg/kg oral, 20 min): 18.39 ± 3.14% | % of time spent in open arms ([4]; 1 mg/kg oral, 20 min): 14.28 ± 2.36% | % of entries into open arms ([4]; 1 mg/kg oral, 60 min): 18.51 ± 3.34% | % of time spent in open arms ([4]; 1 mg/kg oral, 60 min): 15.80 ± 3.29% | % of entries into open arms ([4]; 2 mg/kg oral, 20 min): 18.30 ± 2.78% | % of time spent in open arms ([4]; 2 mg/kg oral, 20 min): 15.74 ± 3.00% | % of entries into open arms ([4]; 2 mg/kg oral, 60 min): 16.91 ± 2.49% | % of time spent in open arms ([4]; 2 mg/kg oral, 60 min): 16.84 ± 1.99% | anxiolysis compared to either dosage of diazepam ([4]; 4.0 mg/kg): more anxiolysis | % of entries into open arms ([4]; 4 mg/kg oral, 20 min): 32.28 ± 2.91 % | % of time spent in open arms ([4]; 4 mg/kg oral, 20 min): 33.55 ± 2.09 % | % of entries into open arms ([4]; 4 mg/kg oral, 60 min): 19.90 ± 1.63% | % of time spent in open arms ([4]; 4 mg/kg oral, 60 min): 15.69 ± 2.09% | % of entries into open arms ([4]; 8 mg/kg oral, 20 min): 28.90 ± 2.23 % | % of time spent in open arms ([4]; 8 mg/kg oral, 20 min): 25.62 ± 1.73 % | % of entries into open arms ([4]; 8 mg/kg oral, 60 min): 18.67 ± 2.24% | % of time spent in open arms ([4]; 8 mg/kg oral, 60 min): 16.76 ± 2.19% | time spent in open arms and entries made into open arms vs control ([4]; 4.0 and 8.0 mg/kg, twenty minutes after dosage): significant increase | ability to grasp the wire ([5]; K36 dosage regimen 1.0-8.0 mg/kg): remained unchanged | Ki [6]: 1.1 nM | fold difference in binding affinity ([7]; Compound 1 vs Compound 6 (K1)): 260 fold | IC50 ([7]; read-out: Inhibition of 3H-Flunitrazepam IC50, 1 nM [3H]-flunitrazepam, rat whole brain synaptosomal membrane): 1.5 nM

CN1C(=O)CN=C(c2ccccc2)c2cc(Cl)ccc21 [Diazepam, reference compound]
GABA ratio (IC50 ratio without GABA/with GABA), column C ([1]; 10^-5 M GABA, rat cerebral cortex membranes): 2.0 | Ki [2]: 9.5 nM | Number of head dips [3, 11]: 19.12 ± 2.92 | Number of rearings [3, 11]: 25.13 ± 2.85 | Time spent head-dipping [3, 11]: 22.75 ± 2.59 | Number of head dips [3, 12]: 17.25 ± 1.89 | Number of rearings [3, 12]: 32.16 ± 3.15 | Time spent head-dipping [3, 12]: 19.50 ± 2.33 | sedative effects (decrease in head-dips, time head-dipping, rearings) ([3]; at the dosage regimen): lack of sedative effects | % of entries into open arms [4, 13]: 26.48 ± 2.83 % | % of time spent in open arms [4, 13]: 28.71 ± 2.27 % | % of entries into open arms [4, 14]: 29.85 ± 1.29 % | % of time spent in open arms [4, 14]: 32.24 ± 1.56 % | time spent in open arms and entries made into open arms vs control ([4]; 1.0 and 5.0 mg/kg): dose dependent increase | ability to grasp the wire compared to control ([5]; 5.0 mg/kg): significant impairment | GABA ratio (IC50 ratio without GABA/with GABA), column A [8]: 2.9 | GABA ratio (IC50 ratio without GABA/with GABA), column B [9]: 2.3

COc1ccc2oc(-c3ccccc3N)cc(=O)c2c1 [2′-amino, 6-methoxyflavone]
IC50 [10]: 2000 nM

Source: US6740677B2, “Methods of treating benzodiazepine site (BZD-S) associated syndromes using 2′ hydroxyflavonoids” (priority 2002, dated 2004)
